Laboratory results published in patent US10899709B2, “Novel-alkynyl-substituted 3-phenylpyrrolidine-2,4-diones and use thereof as herbicides” (BAYER CROPSCIENCE AKTIENGESELLSCHAFT, priority 2015, dated 2021).

What was measured:
Format in all cases: in vivo
[1] = tested on: Alopecurus myosuroides; experiment: Pre-emergence herbicidal effect; details: visual score after 3 weeks
Description: (§1) Seeds of monocotyledonous and dicotyledonous weed plants and crop plants are laid out in wood-fibre pots in sandy loam and covered with soil. The compounds according to the invention formulated in the form of wettable powders (WP) or as emulsion concentrates (EC) are then applied as aqueous suspension or emulsion at a water application rate of 600 to 800 l/ha (converted) with the addition of 0.2% wetting agent to the surface of the covering soil. After the treatment, the pots are placed in a greenhouse and kept under good growth conditions for the trial plants. The damage to the test plants is scored visually after a test period of 3 weeks by comparison with untreated controls (herbicidal activity in percent (%): 100% activity=the plants have died, 0% activity=like control plants).

[2] = tested on: Avena fatua; experiment: Pre-emergence herbicidal effect; details: visual score after 3 weeks
Description: as §1

[3] = tested on: Cyperus esculentus; experiment: Pre-emergence herbicidal effect; details: visual score after 3 weeks
Description: as §1

[4] = tested on: Echinochloa crus-galli; experiment: Pre-emergence herbicidal effect; details: visual score after 3 weeks
Description: as §1

[5] = tested on: Lolium multiflorum; experiment: Pre-emergence herbicidal effect; details: visual score after 3 weeks
Description: as §1

[6] = tested on: Setaria viridis; experiment: Pre-emergence herbicidal effect; details: visual score after 3 weeks
Description: as §1

[7] = tested on: Veronica persica; experiment: Pre-emergence herbicidal effect; details: 320 g/ha, visual score after 3 weeks
Description: as §1

[8] = tested on: Alopecurus myosuroides; experiment: Post-emergence herbicidal effect; details: for Post-emergence effectiveness ALOMY: visual assessment after about 3 weeks
Procedure: (§2) Seeds of monocotyledonous and dicotyledonous weed and crop plants are laid out in sandy loam in wood-fibre pots, covered with soil and cultivated in a greenhouse under good growth conditions. 2 to 3 weeks after sowing, the test plants are treated at the one-leaf stage. The compounds according to the invention, formulated in the form of wettable powders (WP) or as emulsion concentrates (EC), are then sprayed as aqueous suspension or emulsion at a water application rate of 600 to 800 l/ha (converted) with the addition of 0.2% of wetting agent onto the green parts of the plants. After the test plants have been left to stand in the greenhouse under optimal growth conditions for about 3 weeks, the action of the preparations is assessed visually in comparison to untreated controls (herbicidal action in percent (%): 100% activity=the plants have died, 0% activity=like control plants).

[9] = tested on: Avena fatua; experiment: Post-emergence herbicidal effect; details: for Post-emergence effectiveness AVEFA: visual assessment after about 3 weeks
Procedure: as §2

[10] = tested on: Echinochloa crus-galli; experiment: Post-emergence herbicidal effect; details: visual assessment after about 3 weeks
Procedure: as §2

[11] = tested on: Lolium multiflorum; experiment: Post-emergence herbicidal effect; details: visual assessment after about 3 weeks
Procedure: as §2

[12] = tested on: PHBPU; experiment: Post-emergence herbicidal effect; details: 20 g a.i./ha
Procedure: as §2

[13] = tested on: Setaria viridis; experiment: Post-emergence herbicidal effect; details: visual assessment after about 3 weeks
Procedure: as §2

[14] = tested on: Polygonum convolvulus; experiment: Post-emergence herbicidal effect; details: 80 g/ha, visual assessment after about 3 weeks
Procedure: as §2

[15] = tested on: Amaranthus retroflexus; experiment: Pre-emergence herbicidal effect; details: 320 g/ha, visual score after 3 weeks
Description: as §1

[16] = tested on: Veronica persica; experiment: Post-emergence herbicidal effect; details: 80 g/ha, visual assessment after about 3 weeks
Procedure: as §2

[17] = tested on: Viola tricolor; experiment: Pre-emergence herbicidal effect; details: 320 g/ha, visual score after 3 weeks
Description: as §1

Row | SMILES | Pre-emergence effectiveness ALOMY ([1]; 80 g/ha) [%] | Pre-emergence effectiveness ALOMY ([1]; 320 g/ha) [%] | Pre-emergence effectiveness AVEFA ([2]; 80 g/ha) [%] | Pre-emergence effectiveness AVEFA ([2]; 320 g/ha) [%] | Pre-emergence effectiveness CYPES ([3]; 320 g/ha) [%] | Pre-emergence effectiveness ECHCG ([4]; 80 g/ha) [%] | Pre-emergence effectiveness ECHCG ([4]; 320 g/ha) [%] | Pre-emergence effectiveness LOLMU ([5]; 80 g/ha) [%] | Pre-emergence effectiveness LOLMU ([5]; 320 g/ha) [%] | Pre-emergence effectiveness SETVI ([6]; 80 g/ha) [%] | Pre-emergence effectiveness SETVI ([6]; 320 g/ha) [%] | Pre-emergence effectiveness VERPE [7] [%] | Post-emergence effectiveness ALOMY ([8]; 20 g/ha) [%] | Post-emergence effectiveness ALOMY ([8]; 80 g/ha) [%] | Post-emergence effectiveness AVEFA ([9]; 80 g/ha) [%] | Post-emergence effectiveness ECHCG ([10]; 20 g/ha) [%] | Post-emergence effectiveness ECHCG ([10]; 80 g/ha) [%] | Post-emergence effectiveness LOLMU ([11]; 80 g/ha) [%] | Post-emergence effectiveness SETVI ([13]; 20 g/ha) [%] | Post-emergence effectiveness SETVI ([13]; 80 g/ha) [%] | also measured
1 | CC#Cc1cc(C)c(C2=C(O)C3(CCC(COC)CC3)NC2=O)c(CC)c1 (stereo not drawn) [Example I-5] | 100 | 100 | 100 | 100 | 100 | 100 | 100 | 100 | 100 | 100 | 100 | 80 | 90 | 100 | 100 | 100 | 100 | 100 | 90 | 100 | Comparison data for post-emergence effect ALOMY ([8]; 20 g a.i./ha): 90%; Comparison data for post-emergence effect AVEFA ([9]; 20 g a.i./ha): 90%; Post-emergence effectiveness AVEFA ([9]; 20 g/ha): 90%; Post-emergence effectiveness LOLMU ([11]; 20 g/ha): 90%; Comparison data for post-emergence effect PHBPU [12]: 30%
2 | CCc1cc(C#CC2CC2)cc(C)c1C1=C(O)C2(CCC(COC)CC2)NC1=O (stereo not drawn) [Example I-7] | 80 | 100 |  |  |  | 100 | 100 | 100 | 100 | 90 | 100 |  | 90 | 100 | 100 | 100 | 100 | 100 | 100 | 100 | Post-emergence effectiveness LOLMU ([11]; 20 g/ha): 90%; Post-emergence effectiveness POLCO [14]: 80%
3 | CC#Cc1cc(CC)c(C2=C(OC(=O)C(C)C)C3(CCC(CCOC)CC3)NC2=O)c(CC)c1 (stereo not drawn) [Example Ia-5] | 100 | 100 | 80 | 100 | 100 | 100 | 100 | 100 | 100 | 100 | 100 | 100 |  |  |  |  |  |  |  |  | Pre-emergence effectiveness AMARE [15]: 100%; Pre-emergence effectiveness CYPES ([3]; 80 g/ha): 100%
4 | CC#Cc1cc(C)c(C2=C(OC(=O)C(C)C)C3(CCC(COC)CC3)NC2=O)c(CC)c1 (stereo not drawn) [Ia-3] | 90 | 100 | 80 | 90 |  | 100 | 100 | 100 | 100 | 100 | 100 | 90 | 90 | 100 |  | 90 | 100 | 100 | 90 | 100 | Post-emergence action VERPE [16]: 90%
5 | CC#Cc1cc(C)c(C2=C(OC(=O)C(C)C)C3(CCC(CCOC)CC3)NC2=O)c(CC)c1 (stereo not drawn) [Ia-4] |  | 80 |  |  |  | 100 | 100 |  | 90 | 100 | 100 | 90 |  |  |  |  |  |  |  |  | Pre-emergence effectiveness VIOTR [17]: 100%
